These results are taken from ChEMBL document CHEMBL5385924, “Stereoselective Synthesis of Xylodonin A and 22-Hydroxyxylodonin A and Discovery of Analogues with Cytotoxic Activity” (J Nat Prod, 2024).

The test system of one series is Pseudomonas aeruginosa. As to the kind of experiment: Antibacterial activity against Pseudomonas aeruginosa assessed as inhibition of bacterial growth. Format: functional, organism-based.
The test system of a further series is Proteus vulgaris. As to the kind of experiment: Antibacterial activity against Proteus vulgaris assessed as inhibition of bacterial growth. Format: functional, organism-based.
Series [1] concerns HepG2. The series can be described thus: Antiproliferative activity against human HepG2 cells assessed as reduction in cell viability measured after 48 hrs by CCK8 assay. The series is classed as functional, cell-based. Particulars: HepG2, 48 h.
The next series relates to Salmonella typhimurium. The series can be described thus: Antibacterial activity against Salmonella typhimurium assessed as inhibition of bacterial growth. The series is classed as functional, organism-based. Particulars: Salmonella enterica subsp. enterica serovar Typhimurium.
For a further series, the system named is Candida albicans. As to the kind of experiment: Antifungal activity against Candida albicans assessed as inhibition of fungal growth. Format: functional, organism-based.
A further series concerns Staphylococcus aureus. The series can be described thus: Antibacterial activity against Staphylococcus aureus assessed as inhibition of bacterial growth. Format: functional, organism-based.
The subject of series [2] is Mycolicibacterium smegmatis. The series can be described thus: Antibacterial activity against Mycobacterium smegmatis assessed as inhibition of bacterial growth. The series is classed as functional, organism-based.
For the next series, the system named is Escherichia coli. The series can be described thus: Antibacterial activity against Escherichia coli assessed as inhibition of bacterial growth. Format: functional, organism-based.
Series [3] can be described thus: Selectivity index, ratio of IC50 for cytotoxicity against human HL7702 cells to IC50 for antiproliferative activity against human HepG2 cells. The series is classed as toxicity, cell-based. Particulars: HL7702 cells versus HepG2 cells, read-out: Ratio IC50.
Series [4] can be described thus: Cytotoxicity against human HL7702 cells assessed as reduction in cell viability measured after 48 hrs by CCK8 assay. Format: toxicity, cell-based. Particulars: HL7702 (L02) cells.
The test system of series [5] is HepG2. The series can be described thus: Induction of apoptosis in human HepG2 cells assessed as necrotic cells at 10 uM measured after 48 hrs by AnnexinV-FITC/PI staining based flow cytometry (reference value: 0.19%). Format: functional.
In series [6] the test system is HepG2. As to the kind of experiment: Induction of apoptosis in human HepG2 cells assessed as late apoptotic cells at 10 uM measured after 48 hrs by AnnexinV-FITC/PI staining based flow cytometry (reference value: 2.73%). Format: functional.
For series [7], the system named is HepG2. As to the kind of experiment: Induction of apoptosis in human HepG2 cells assessed as necrotic cells at 20 uM measured after 48 hrs by AnnexinV-FITC/PI staining based flow cytometry (reference value: 0.19%). The series is classed as functional.
The subject of series [8] is HepG2. As to the kind of experiment: Induction of apoptosis in human HepG2 cells assessed as viable cells at 20 uM measured after 48 hrs by AnnexinV-FITC/PI staining based flow cytometry (reference value: 95.88%). Format: functional. Particulars: read-out: Activity.
Series [9] has as its system HepG2. As to the kind of experiment: Induction of apoptosis in human HepG2 cells assessed as viable cells at 10 uM measured after 48 hrs by AnnexinV-FITC/PI staining based flow cytometry (reference value: 95.88%). Particulars: read-out: Activity. The series is classed as functional.
Series [10] deals with HepG2. The series can be described thus: Induction of apoptosis in human HepG2 cells assessed as early apoptotic cells at 20 uM measured after 48 hrs by AnnexinV-FITC/PI staining based flow cytometry (reference value: 1.21%). Format: functional.
Series [11] relates to HepG2. The series can be described thus: Induction of apoptosis in human HepG2 cells assessed as late apoptotic cells at 20 uM measured after 48 hrs by AnnexinV-FITC/PI staining based flow cytometry (reference value: 2.73%). Format: functional.
In series [12] the test system is HepG2. The series can be described thus: Inhibition of colony formation in human HepG2 cells assessed as relative colony formation area at 15 uM treated every 6 hrs for 24 hrs followed by culturing in fresh medium for 7 days by Giemsa staining based analysis. Format: functional. Also on record: scale not given: the % may be the effect or the level left.
For series [13], the system named is HepG2. The series can be described thus: Inhibition of colony formation in human HepG2 cells assessed as relative colony formation area at 10 uM treated every 6 hrs for 24 hrs followed by culturing in fresh medium for 7 days by Giemsa staining based analysis. Format: functional. Set-up: scale not given: the % may be the effect or the level left.
The subject of series [14] is HepG2. The series can be described thus: Inhibition of colony formation in human HepG2 cells assessed as relative colony formation area at 5 uM treated every 6 hrs for 24 hrs followed by culturing in fresh medium for 7 days by Giemsa staining based analysis. The series is classed as functional. Also on record: scale not given: the % may be the effect or the level left.

For series [15], the system named is HepG2. As to the kind of experiment: Induction of apoptosis in human HepG2 cells assessed as early apoptotic cells at 10 uM measured after 48 hrs by AnnexinV-FITC/PI staining based flow cytometry (reference value: 1.21%). The series is classed as functional.
In series [16] the test system is HepG2. The series can be described thus: Inhibition of colony formation in human HepG2 cells assessed as relative colony formation area at 20 uM treated every 6 hrs for 24 hrs followed by culturing in fresh medium for 7 days by Giemsa staining based analysis. Format: functional. Set-up: scale not given: the % may be the effect or the level left.
Series [17] concerns HepG2. As to the kind of experiment: Antimetastatic activity against human HepG2 cells assessed as inhibition of cell migration measured after 12 to 24 hrs by scratch wound healing assay. The series is classed as functional, cell-based. Particulars: time 12-24 hrs.

The structures appear in SMILES notation. Active and inactive are the calls of the source. The calls are words filed in the database; no cut-off is given here.

Regarding `CC1(C)CCC[C@]2(C)C3=C(COC3=O)C[C@H](O)[C@@H]12`, the result (in the series on Pseudomonas aeruginosa; in the series with Proteus vulgaris; in the series with Salmonella typhimurium; in the series on Candida albicans; with Staphylococcus aureus; in series [2]) was inactive. For the same molecule, the result in the series with Escherichia coli was inactive. Besides, in the series on HepG2 [1], the IC50 was above 50 µM.

With `COc1cc([C@@H]2c3cc4c(cc3[C@@H](O[C@@H]3O[C@@H]5CO[C@@H](C)O[C@H]5[C@H](O)[C@H]3O)[C@H]3COC(=O)[C@H]23)OCO4)cc(OC)c1O` [ETOPOSIDE], the selectivity ratio in [3] was determined as 8.4. In addition, the IC50 in the series with HepG2 [1] was 5.9 µM. Moreover, in series [4], the IC50 at 48 h is 49.6 µM.

Regarding `CC1(C)CCC[C@]2(C)C3=C(COC3=O)C[C@H](OC(=O)/C=C/c3ccccc3F)[C@@H]12`, in [3], the selectivity ratio is above 4.5. Moreover, the outcome (in the series on Pseudomonas aeruginosa; with Proteus vulgaris; in the series on Salmonella typhimurium; in the series with Candida albicans; with Staphylococcus aureus; in [2]) was inactive. Moreover, the outcome in the series with Escherichia coli was inactive. Besides, in the series with HepG2 [1], the IC50 is 22.2 µM. For the same molecule, the concentration for half-maximal inhibition (IC50) at 48 h in [4] is above 100 µM.

With `CC1(C)CCC[C@]2(C)C3=C(COC3=O)C[C@H](OC(=O)/C=C/c3ccccc3)[C@@H]12`, the result (with Pseudomonas aeruginosa; with Proteus vulgaris; in the series with Salmonella typhimurium; in the series on Candida albicans; with Staphylococcus aureus; in series [2]) was inactive. Besides, the result in the series on Escherichia coli was inactive. Also, the IC50 in the series on HepG2 [1] is above 50 µM.

With `CC1(C)CCC[C@]2(C)C3=C(COC3=O)C[C@H](OC(=O)/C=C/c3ccc(Cl)cc3)[C@@H]12`, the outcome (in the series with Pseudomonas aeruginosa; with Proteus vulgaris; with Salmonella typhimurium; with Candida albicans; in the series with Staphylococcus aureus; in series [2]) was inactive. Besides, in the series with Escherichia coli, the result was inactive. For the same molecule, the IC50 in the series on HepG2 [1] is above 50 µM.

Regarding `CC(=O)Oc1ccc(/C=C/C(=O)O[C@H]2CC3=C(C(=O)OC3)[C@@]3(C)CCCC(C)(C)[C@H]23)cc1`, the Activity with HepG2 [5] stood at 0.27%; with HepG2 [6], 6.96%; in the series on HepG2 [7] it was 0.2%; with HepG2 [10], 14.41%; with HepG2 [11], 6.23%; in the series with HepG2 [12], 5.9%. The Activity is listed as 8.1% in the series with HepG2 [13], 11.2% in the series on HepG2 [14], 1.73% with HepG2 [15] and 2.3% in the series with HepG2 [16]. The selectivity ratio in series [3] was above 11.4. Also, the viability at 20 µM in the series on HepG2 [8] was 79.2%. Further, the outcome (in the series on Pseudomonas aeruginosa; in the series with Proteus vulgaris; in the series on Salmonella typhimurium; in the series on Candida albicans; in the series with Staphylococcus aureus; in [2]) was inactive. For the same molecule, in the series with Escherichia coli, the result was inactive. In addition, the viability at 10 µM in the series with HepG2 [9] was 91%. For the same molecule, in the series with HepG2 [1], the IC50 amounted to 8.8 µM. Further, the outcome in the series with HepG2 [17] was Active. The IC50 at 48 h in series [4] is above 100 µM.

For the molecule `CC1(C)CCC[C@]2(C)C3=C(COC3=O)C[C@H](OC(=O)/C=C/c3ccc(O)cc3)[C@@H]12`, the selectivity ratio in series [3] is above 6.9. For the same molecule, the outcome (in the series on Pseudomonas aeruginosa; with Proteus vulgaris; in the series on Salmonella typhimurium; with Candida albicans; in the series on Staphylococcus aureus; in series [2]) was inactive. In addition, the result in the series with Escherichia coli was inactive. Besides, the 50% inhibitory concentration (IC50) with HepG2 [1] is 14.2 µM. Moreover, the IC50 at 48 h in series [4] is above 100 µM.

With `CC1(C)CCC[C@]2(C)C3=C(COC3=O)C[C@H](OC(=O)/C=C/c3ccc(C(F)(F)F)cc3)[C@@H]12`, the outcome (in the series on Pseudomonas aeruginosa; in the series on Proteus vulgaris; in the series on Salmonella typhimurium; in the series on Candida albicans; with Staphylococcus aureus; in [2]) was inactive. Besides, the outcome in the series on Escherichia coli was inactive. In the series on HepG2 [1], the IC50 is above 50 µM.
